Data taken from patent publication US20080194546A1, “Pyrido-, Pyrazo- and Pyrimido-Pyrimidine Derivatives as mTOR Inhibitors” (KuDOS Pharmaceuticals Limited, priority 2005, published 2008).

The compounds below were run against T1, mTOR (Homo sapiens, UniProt P42345) (assay: Biological Assay: mTOR enzyme activity, mTOR immunoprecipitated from HeLa cell cytoplasmic extract, recombinant PHAS-1 as substrate). Conditions: Biological Assay, upper bounds; read-out: IC50 values against mTOR.
T1 construct: mTOR protein was isolated from HeLa cell cytoplasmic extract by immunoprecipitation; endogenous in cells; host or cells: HeLa cell cytoplasmic extract (immunoprecipitate)
Format: biochemical
Text: For mTOR enzyme activity assays, mTOR protein was isolated from HeLa cell cytoplasmic extract by immunoprecipitation, and activity determined essentially as described previously using recombinant PHAS-1 as a substrate (ref. 21).

Compound | IC50 [µM]
CC1CCCCN1c1nc(N2CCOCC2)c2ccc(-c3ccccc3)nc2n1 (stereo not shown) [1 h] | < 10
C[C@@H]1CN(c2nc(N3CCOCC3)c3ccc(-c4ccoc4)nc3n2)C[C@H](C)O1 [Example 1aa] | < 1
CC(=O)Nc1cccc(-c2ccc3c(N4CCOCC4)nc(N4C[C@@H](C)O[C@@H](C)C4)nc3n2)c1 [Example 1ab] | < 1
C[C@@H]1CN(c2nc(N3CCOCC3)c3ccc(-c4ccncc4)nc3n2)C[C@H](C)O1 [Example 1ac] | < 1
C[C@@H]1CN(c2nc(N3CCOCC3)c3ccc(-c4cnn(C)c4)nc3n2)C[C@H](C)O1 [Example 1ad] | < 1
COc1ccc(-c2ccc3c(N4C[C@@H](C)O[C@@H](C)C4)nc(N4CCOCC4)nc3n2)cc1CO [Example 1ae] | < 1
COCCN(CCOC)c1nc(N2CCOCC2)c2ccc(-c3ccc(OC)c(CO)c3)nc2n1 [Example 1af] | < 1
CC(=O)c1ccc(-c2ccc3c(N4CCOCC4)nc(N4C[C@@H](C)O[C@@H](C)C4)nc3n2)s1 [Example 1ag] | < 1
COc1ccc(-c2ccc3c(N4CCOCC4)nc(N4C[C@@H](C)O[C@@H](C)C4)nc3n2)cc1OC [Example 1ah] | < 1
C[C@@H]1CN(c2nc(N3CCOCC3)c3ccc(-c4cccc(C(N)=O)c4)nc3n2)C[C@H](C)O1 [Example 1ai] | < 1
Cc1cccc(-c2ccc3c(N4CCOCC4)nc(N4C[C@@H](C)O[C@@H](C)C4)nc3n2)c1 [Example 1aj] | < 1
C[C@@H]1CN(c2nc(N3CCOCC3)c3ccc(-c4ccc5c(c4)OCO5)nc3n2)C[C@H](C)O1 [Example 1ak] | < 10
C[C@@H]1CN(c2nc(N3CCOCC3)c3ccc(-c4ccc(Cl)s4)nc3n2)C[C@H](C)O1 [Example 1al] | < 1
COC(=O)c1cccc(-c2ccc3c(N4CCOCC4)nc(N4C[C@@H](C)O[C@@H](C)C4)nc3n2)c1 [Example 1am] | < 1
C[C@@H]1CN(c2nc(N3CCOCC3)c3ccc(-c4cccc5ccccc45)nc3n2)C[C@H](C)O1 [Example 1an] | < 1
C[C@@H]1CN(c2nc(N3CCOCC3)c3ccc(-c4ccc(OC(F)(F)F)cc4)nc3n2)C[C@H](C)O1 [Example 1ao] | < 1
C[C@@H]1CN(c2nc(N3CCOCC3)c3ccc(-c4ccc(C=O)s4)nc3n2)C[C@H](C)O1 [Example 1ap] | < 1
CC(=O)c1ccc(-c2ccc3c(N4CCOCC4)nc(N4C[C@@H](C)O[C@@H](C)C4)nc3n2)cc1 [Example 1aq] | < 1
C[C@@H]1CN(c2nc(N3CCOCC3)c3ccc(-c4ccc(C(=O)O)s4)nc3n2)C[C@H](C)O1 [Example 1ar] | < 1
C[C@@H]1CN(c2nc(N3CCOCC3)c3ccc(-c4cccc(N5CCOCC5)c4)nc3n2)C[C@H](C)O1 [Example 1as] | < 1
C[C@@H]1CN(c2nc(N3CCOCC3)c3ccc(-c4ccc5c(c4)OCCO5)nc3n2)C[C@H](C)O1 [Example 1at] | < 1
C[C@@H]1CN(c2nc(N3CCOCC3)c3ccc(-c4cccc5cccnc45)nc3n2)C[C@H](C)O1 [Example 1ay] | < 10
C[C@@H]1CN(c2nc(N3CCOCC3)c3ccc(-c4cncnc4)nc3n2)C[C@H](C)O1 [Example 1az] | < 10
C[C@@H]1CN(c2nc(N3CCOCC3)c3ccc(-c4ccc5c(c4)OCCCO5)nc3n2)C[C@H](C)O1 [Example 1ba] | < 10
CCC1CCCCN1c1nc(N2CCOCC2)c2ccc(-c3ccc(OC)c(CO)c3)nc2n1 (stereo not shown) [Example 1bc] | < 0.1

Compound | IC50 [µM]
Cc1ccc(-c2ccc3c(N4CCOCC4)nc(N4C[C@@H](C)O[C@@H](C)C4)nc3n2)cc1 [Example 1d] | < 0.1
COc1ccc(-c2ccc3c(N4CCOCC4)nc(N4C[C@@H](C)O[C@@H](C)C4)nc3n2)cc1 [Example 1e] | < 0.1
C[C@@H]1CN(c2nc(N3CCOCC3)c3ccc(-c4ccsc4)nc3n2)C[C@H](C)O1 [Example 1i] | < 0.1
C[C@@H]1CN(c2nc(N3CCOCC3)c3ccc(-c4ccc(O)cc4)nc3n2)C[C@H](C)O1 [Example 1l] | < 0.1
C[C@@H]1CN(c2nc(N3CCOCC3)c3ccc(-c4ccc(C#N)cc4)nc3n2)C[C@H](C)O1 [Example 1n] | < 0.1
COc1ccc(-c2ccc3c(N4CCOCC4)nc(N(CCO)CCO)nc3n2)cc1CO [Example 1o] | < 0.1
COc1ccc(-c2ccc3c(N4C[C@@H](C)O[C@@H](C)C4)nc(N4CCOC[C@@H]4C)nc3n2)cc1CO [Example 1p] | < 0.1
C[C@@H]1CN(c2nc(N3CCOCC3)c3ccc(-c4cccc(CO)c4)nc3n2)C[C@H](C)O1 [Example 1q] | < 0.1
Cc1ccc(-c2ccc3c(N4CCOCC4)nc(N4CCCC[C@@H]4C)nc3n2)cc1 [Example 1s] | < 1
Cc1ccc(-c2ccc3c(N4CCOCC4)nc(N4C[C@@H](C)O[C@@H](C)C4)nc3n2)s1 [Example 1t] | < 1
COc1ccc(-c2ccc3c(N4CCOCC4)nc(N4CCCC[C@@H]4C)nc3n2)cc1 [Example 1u] | < 1
Cc1cscc1-c1ccc2c(N3CCOCC3)nc(N3C[C@@H](C)O[C@@H](C)C3)nc2n1 [Example 1v] | < 1
COc1ccc(-c2ccc3c(N4CCOCC4)nc(N4C[C@@H](C)O[C@@H](C)C4)nc3n2)cc1F [Example 1w] | < 1
C[C@@H]1CN(c2nc(N3CCOCC3)c3ccc(-c4ccc5[nH]ccc5c4)nc3n2)C[C@H](C)O1 [Example 1x] | < 1
Cc1cc(-c2ccc3c(N4CCOCC4)nc(N4C[C@@H](C)O[C@@H](C)C4)nc3n2)cs1 [Example 1y] | < 1
C[C@@H]1CN(c2nc(N3CCOCC3)c3ccc(-c4ccc([N+](=O)[O-])cc4)nc3n2)C[C@H](C)O1 [Example 1z] | < 1
C[C@@H]1CN(c2nc(N3CCOCC3)c3ccc(Nc4ccccc4)nc3n2)C[C@H](C)O1 [Example 2a] | < 1
C[C@@H]1CN(c2nc(N3CCOCC3)c3ccc(Nc4ccc(Cl)cc4O)nc3n2)C[C@H](C)O1 [Example 2aa] | < 1
C[C@@H]1CN(c2nc(N3CCOCC3)c3ccc(Nc4cc(F)c(F)cc4[N+](=O)[O-])nc3n2)C[C@H](C)O1 [Example 2ac] | < 1
CSc1nc2ccc(Nc3ccc4c(N5CCOCC5)nc(N5C[C@@H](C)O[C@@H](C)C5)nc4n3)cc2s1 [Example 2ad] | < 1
C[C@@H]1CN(c2nc(N3CCOCC3)c3ccc(Nc4ccc(C5SCCS5)cc4)nc3n2)C[C@H](C)O1 [Example 2ae] | < 10
C[C@@H]1CN(c2nc(N3CCOCC3)c3ccc(NC4CCCCC4)nc3n2)C[C@H](C)O1 [Example 2af] | < 1
C[C@@H]1CN(c2nc(N3CCOCC3)c3ccc(NC4CCCC4)nc3n2)C[C@H](C)O1 [Example 2ag] | < 10
C[C@@H]1CN(c2nc(N3CCOCC3)c3ccc(NC4CC4)nc3n2)C[C@H](C)O1 [Example 2ah] | < 1
C[C@@H]1CN(c2nc(N3CCOCC3)c3ccc(NC4CCC4)nc3n2)C[C@H](C)O1 [Example 2ai] | < 10

Compound | IC50 [µM]
C[C@@H]1CN(c2nc(N3CCOCC3)c3ccc(NCC4CC4)nc3n2)C[C@H](C)O1 [Example 2aj] | < 10
CC1CCC(Nc2ccc3c(N4CCOCC4)nc(N4C[C@@H](C)O[C@@H](C)C4)nc3n2)CC1 (stereo partly shown) [Example 2al] | < 10
C=CCNc1ccc2c(N3CCOCC3)nc(N3C[C@@H](C)O[C@@H](C)C3)nc2n1 [Example 2am] | < 10
COC(=O)c1ccc(Nc2ccc3c(N4CCOCC4)nc(N4C[C@@H](C)O[C@@H](C)C4)nc3n2)o1 [Example 2an] | < 10
Cc1nnc(Nc2ccc3c(N4CCOCC4)nc(N4C[C@@H](C)O[C@@H](C)C4)nc3n2)o1 [Example 2ao] | < 10
C[C@@H]1CN(c2nc(N3CCOCC3)c3ccc(Nc4oc(-c5ccccc5)cc4C#N)nc3n2)C[C@H](C)O1 [Example 2ap] | < 1
C[C@@H]1CN(c2nc(N3CCOCC3)c3ccc(Nc4ccsc4)nc3n2)C[C@H](C)O1 [Example 2aq] | < 1
C[C@@H]1CN(c2nc(N3CCOCC3)c3ccc(Nc4nc[nH]c4C#N)nc3n2)C[C@H](C)O1 [Example 2ar] | < 1
COC(=O)c1cc(Nc2ccc3c(N4CCOCC4)nc(N4C[C@@H](C)O[C@@H](C)C4)nc3n2)cn1C [Example 2as] | < 1
C[C@@H]1CN(c2nc(N3CCOCC3)c3ccc(Nc4nc5cncnc5[nH]4)nc3n2)C[C@H](C)O1 [Example 2au] | < 10
C[C@@H]1CN(c2nc(N3CCOCC3)c3ccc(Nc4nccc5cccnc45)nc3n2)C[C@H](C)O1 [Example 2av] | < 1
C[C@@H]1CN(c2nc(N3CCOCC3)c3ccc(Nc4ccnc(-c5cccnc5)n4)nc3n2)C[C@H](C)O1 [Example 2aw] | < 1
C[C@@H]1CN(c2nc(N3CCOCC3)c3ccc(Nc4nccc(-c5ccco5)n4)nc3n2)C[C@H](C)O1 [Example 2ax] | < 1
C[C@@H]1CN(c2nc(N3CCOCC3)c3ccc(Nc4ccc5cccc(O)c5n4)nc3n2)C[C@H](C)O1 [Example 2ay] | < 10
C[C@@H]1CN(c2nc(N3CCOCC3)c3ccc(Nc4cccnc4)nc3n2)C[C@H](C)O1 [Example 2az] | < 1
C[C@@H]1CN(c2nc(N3CCOCC3)c3ccc(Nc4ccncc4)nc3n2)C[C@H](C)O1 [Example 2ba] | < 0.1
C[C@@H]1CN(c2nc(N3CCOCC3)c3ccc(Nc4ccncn4)nc3n2)C[C@H](C)O1 [Example 2bb] | < 1
C[C@@H]1CN(c2nc(N3CCOCC3)c3ccc(Nc4cnccn4)nc3n2)C[C@H](C)O1 [Example 2bc] | < 10
Cc1ccc(Nc2ccc3c(N4CCOCC4)nc(N4C[C@@H](C)O[C@@H](C)C4)nc3n2)nc1 [Example 2bd] | < 1
Cc1cccc(Nc2ccc3c(N4CCOCC4)nc(N4C[C@@H](C)O[C@@H](C)C4)nc3n2)n1 [Example 2be] | < 1
Cc1cccnc1Nc1ccc2c(N3CCOCC3)nc(N3C[C@@H](C)O[C@@H](C)C3)nc2n1 [Example 2bg] | < 10
C[C@@H]1CN(c2nc(N3CCOCC3)c3ccc(N(C)C)nc3n2)C[C@H](C)O1 [Example 2d] | < 10
C[C@@H]1CN(c2nc(N3CCOCC3)c3ccc(Nc4cccc5cnccc45)nc3n2)C[C@H](C)O1 [Example 2f] | < 10
